Assay results: PubChem BioAssay AID248 (DTP/NCI, 2004)
Values joined by “and” are separate entries in the source; they are usually repeats but may differ in a detail not shown here. Identical values can stand only once. Toxic doses and inconclusive results are not listed. Cut-off read from the data, not from the text of the source: active = T/C of 150% or more; inactive = T/C below 125%.

Tested on: L1210 leukemia ip in BDF1 mice, survival T/C
Assay: NCI In Vivo Anticancer Drug Screen. Data for tumor model L1210 Leukemia (intraperitoneal) in B6D2F1 (BDF1) mice
Conditions: endpoint: mean survival time, higher = longer survival
Summary of the method: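 Transplantable tumor model; survival measured in treated vs vehicle control mice. Value = treated/control.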

[1] = dose: 100.0 mg/kg/injection, schedule: Q01DX009 (ip), vehicle: saline with Tween-80
[2] = dose: 100.0 mg/kg/injection, schedule: Q01DX001 (ip), vehicle: carboxymethylcellulose (CMC)
[3] = dose: 200.0 mg/kg/injection, schedule: Q01DX001 (ip), vehicle: carboxymethylcellulose (CMC)
[4] = dose: 400.0 mg/kg/injection, schedule: Q01DX001 (ip), vehicle: carboxymethylcellulose (CMC)
[5] = dose: 100.0 mg/kg/injection, schedule: Q01DX001 (ip), vehicle: saline
[6] = dose: 200.0 mg/kg/injection, schedule: Q01DX001 (ip), vehicle: saline

Measured: T/C

Nc1cnccc1N1CCN(c2cccc3ccccc23)CC1
active: [1] 155 % of control
inactive: dose: 44.0 mg/kg/injection, schedule: Q01DX009 (ip), vehicle: saline with Tween-80 98 % of control | dose: 67.0 mg/kg/injection, schedule: Q01DX009 (ip), vehicle: saline with Tween-80 93 % of control | dose: 100.0 mg/kg/injection, schedule: Q04DX003 (ip), vehicle: saline with Tween-80 98 % of control | dose: 200.0 mg/kg/injection, schedule: Q04DX003 (ip), vehicle: saline with Tween-80 96 % of control | dose: 400.0 mg/kg/injection, schedule: Q04DX003 (ip), vehicle: saline with Tween-80 89 % of control

O=C(c1ccsc1)C(O)c1ccccc1 (stereo unspecified)
inactive: [2] 97 % of control | [3] 87 % of control | [4] 103 % of control

c1ccc(SCCCCSc2ccccc2)cc1
inactive: dose: 75.0 mg/kg/injection, schedule: Q01DX009 (ip), vehicle: saline 107 % of control | dose: 75.0 mg/kg/injection, schedule: Q04DX003 (ip), vehicle: saline 95 % of control | dose: 150.0 mg/kg/injection, schedule: Q01DX009 (ip), vehicle: saline 90 % of control | dose: 150.0 mg/kg/injection, schedule: Q04DX003 (ip), vehicle: saline 100 % of control | dose: 300.0 mg/kg/injection, schedule: Q01DX009 (ip), vehicle: saline 93 % of control | dose: 300.0 mg/kg/injection, schedule: Q04DX003 (ip), vehicle: saline 97 % of control

COc1ccc(S(=O)(=O)c2ccc(F)cc2)cc1
inactive: dose: 50.0 mg/kg/injection, schedule: Q04DX003 (ip), vehicle: Klucel (hydroxypropylcellulose) (HPC) 95 % of control | dose: 100.0 mg/kg/injection, schedule: Q01DX001 (ip), vehicle: other 98 % of control | dose: 100.0 mg/kg/injection, schedule: Q04DX003 (ip), vehicle: Klucel (hydroxypropylcellulose) (HPC) 103 % of control | dose: 200.0 mg/kg/injection, schedule: Q01DX001 (ip), vehicle: other 110 % of control | dose: 200.0 mg/kg/injection, schedule: Q04DX003 (ip), vehicle: Klucel (hydroxypropylcellulose) (HPC) 104 % of control | dose: 400.0 mg/kg/injection, schedule: Q01DX001 (ip), vehicle: other 95 % of control

O=C(COc1ccccc1)NC(=S)Nc1ccc(C(=O)O)cc1
inactive: dose: 100.0 mg/kg/injection, schedule: Q01DX001 (ip), vehicle: saline with Tween-80 97 % of control | [1] 102 % of control and 89 % of control | dose: 100.0 mg/kg/injection, schedule: Q04DX002 (ip), vehicle: saline with Tween-80 97 % of control and 104 % of control | dose: 200.0 mg/kg/injection, schedule: Q01DX001 (ip), vehicle: saline with Tween-80 95 % of control | dose: 200.0 mg/kg/injection, schedule: Q01DX009 (ip), vehicle: saline with Tween-80 105 % of control and 86 % of control | dose: 200.0 mg/kg/injection, schedule: Q04DX002 (ip), vehicle: saline with Tween-80 114 % of control and 90 % of control | dose: 400.0 mg/kg/injection, schedule: Q01DX001 (ip), vehicle: saline with Tween-80 101 % of control | dose: 400.0 mg/kg/injection, schedule: Q01DX009 (ip), vehicle: saline with Tween-80 97 % of control and 89 % of control | dose: 400.0 mg/kg/injection, schedule: Q04DX002 (ip), vehicle: saline with Tween-80 107 % of control and 90 % of control

O=C1CCC(=O)N1CCCO
inactive: dose: 100.0 mg/kg/injection, schedule: Q04DX003 (ip), vehicle: saline 107 % of control | dose: 200.0 mg/kg/injection, schedule: Q04DX003 (ip), vehicle: saline 100 % of control | dose: 400.0 mg/kg/injection, schedule: Q04DX003 (ip), vehicle: saline 104 % of control

CCCCCCCCCCCCCC(C)C
inactive: [5] 96 % of control | [6] 102 % of control | dose: 400.0 mg/kg/injection, schedule: Q01DX001 (ip), vehicle: saline 94 % of control

CC12CCCC(C(C#N)C(N)=O)(C1)NC(=O)C2C#N (stereo unspecified)
inactive: [5] 107 % of control | [6] 96 % of control

O=C(/C=C\c1ccccc1Cl)c1ccccc1
inactive: dose: 100.0 mg/kg/injection, schedule: Q04DX002 (ip), vehicle: gum acacia 98 % of control | dose: 200.0 mg/kg/injection, schedule: Q04DX002 (ip), vehicle: gum acacia 95 % of control | dose: 400.0 mg/kg/injection, schedule: Q04DX002 (ip), vehicle: gum acacia 113 % of control

O=S(=O)(CCN1CCCCC1)c1ccc(F)cc1
inactive: [5] 100 % of control | [6] 100 % of control

COc1cc(C(=O)c2ccccc2C(=O)O)c(OC)c2c1CCCC2
inactive: [2] 91 % of control | [3] 92 % of control | [4] 96 % of control
